Assay results as given in US20030130121A1, “Novel bacterial isolate and the preparation and use of its active metabolites” (priority 1999, published 2003).
In brackets after ≈: the same amount, converted by molar mass.

Key:
[1] = system: S. sclerotiorum ascospores; experiment: Suppression of spore germination - microtiter plate assay 1; assay type: cell-based, Sclerotinia sclerotiorum
Procedure: (§1) To obtain the A. fumigatus conidiospores, the fungus was grown on ME slants for about 2 weeks at 28° C. The F. culmorum and F. oxysporum conidia, the H. annosum basidiospores, the M. canis macroconidia were produced by inoculating fungal plugs on Corn Meal Agar plates (CMA, Difco Ltd.), Hagem Agar plates (5 g glucose, 5 g ME, 0.5 g NH4NO3, 0.5 g KH2PO4, 0.5 g MgSO4×7H2O, 20 g Agar in 1000 ml deionized H2O) and Oat Meal Agar plates (60 g oat meal, 12.5 g Agar in 1000 ml deionized H2O), respectively, for a period of 5 to 10 days at 25° C. Ascospores of S. sclerotiorum were collected during their dispersal from apothecia by entrapping them on the surface of a water agar (12 g Bacto Agar (Difco Ltd)), 1000 ml H2O). Mature spores were then scraped off or washed out from the surface of the agar plates, with 0,5% Bacto Peptone (Difco Ltd) supplemented with 0.01% Tween 80. The P. ultimum sporangia were obtained by. growing the fungus on grass blades (Martin, 1992). The C. albicans stock culture of 1.0×10^6 cfu ml^−1 was prepared from a 24-hours old culture grown on Yeast Malt Agar plates (YM Agar, Difco Ltd) at 37° C. by suspending it in 0.5% Bacto Peptone and adjusting the optical density of this culture to an absorbance of 0.5 at 600 nm. The spore concentration was counted by using a Bürker chamber, and stock spore suspensions were stored at −70 ° C. for further use. The spore concentrations in respective stock suspensions, as well as the spore concentrations and media to culture fungi in a microtiter plate assay, are listed in Table 2 below.
(§2) To follow the activity during purification, HPLC-fractions to be tested were directly collected to 96-well microtiter plates by using a fraction collector (FC 204, Gilson), and mainly the activity to inhibit the germination of F. culmorum conidia and S. sclerotiorum ascospores was tested. […] The solvents were always evaporated, and one hundred μl of spore suspension, suspended in the appropriate media as listed in Table 2, were then distributed into each well. Depending on the fungus tested, the spore germination was monitored after 24 to 96 hours of incubation at 25° C. in darkness except for A. fumigatus and C. albicans which were incubated at 28 ° C. and 37 ° C. Controls were spores suspended in respective culturing media and culturing media only. All tests were done in triplicate and repeated at least twice.
(§3) The activity of haterumalide A, B and E, and of pyrrolnitrin to inhibit the spore germination of A. fumigatus, F. culmorum, F. oxysporum, H. annosum, M. canis, P. ultimum and S. sclerotiorum as well as the inhibition of the C. albicans growth was tested by using the microtiter plate assay 1 described in Example 7. The effect on apothecial formation of S. sclerotiorum sclerotia was assayed by using microtiter plate assay 2 described in Example 7.

P. ultimum sporangia = experiment: as above; assay type: cell-based; conditions: Globisporangium ultimum, read-out: Minimal Inhibitory Concentration (MIC) to totally inhibit spore germination
Procedure: as §1, §2, §3

H. annosum basidiospores = experiment: as above; assay type: cell-based; conditions: Heterobasidion annosum, read-out: Minimal Inhibitory Concentration (MIC) to totally inhibit spore germination
Procedure: as §1, §2, §3

F. culmorum conidia = experiment: as above; assay type: cell-based; conditions: Fusarium culmorum, read-out: Minimal Inhibitory Concentration (MIC) to totally inhibit spore germination
Procedure: as §1, §2, §3

F. oxysporum conidia = experiment: as above; assay type: cell-based; conditions: Fusarium oxysporum, read-out: Minimal Inhibitory Concentration (MIC) to totally inhibit spore germination
Procedure: as §1, §2, §3

[2] = system: A. fumigatus conidiospores; experiment: as above; assay type: cell-based; conditions: Aspergillus fumigatus, read-out: Minimal Inhibitory Concentration (MIC) to totally inhibit spore germination
Procedure: as §1, §2, §3

S. sclerotiorum mycelium = experiment: Suppression of S. sclerotiorum mycelial growth, susceptibility test discs on PDA; assay type: cell-based, Sclerotinia sclerotiorum
Procedure: For testing effects of haterumalide A, halves of surface sterilized and bisected sclerotia were placed in the center PDA plates (9 cm in diameter) to initiate mycelial growth of S. sclerotiorum. The metabolite, at a concentration from 0.05 to 5 μg ml^−1 diluted in MeOH/H2O (1:1), was then spotted directly onto sterile antimicrobial susceptibility test discs (Oxoid Ltd) located at four equidistant places, giving a total of 0.2 to 20 μg ml^−1 compound per one Petri plate. The treatments were performed in triplicate. Zones of inhibition of mycelial growth were measured after 4 days and reduction of mycelial growth was calculated as a percentage of MeOH/H2O controls.

M. canis macroconidia = experiment: Suppression of spore germination - microtiter plate assay 1; assay type: cell-based, Microsporum canis var. canis; conditions: Microsporum canis, read-out: Minimal Inhibitory Concentration (MIC) to totally inhibit spore germination
Procedure: as §1, §2
The activity of haterumalide A, B and E, and of pyrrolnitrin to inhibit the spore germination of A. fumigatus, F. culmorum, F. oxysporum, H. annosum, M. canis, P. ultimum and S. sclerotiorum as well as the inhibition of the C. albicans growth was tested by using the microtiter plate assay 1 described in Example 7. […]

[3] = system: S. sclerotiorum sclerotia; experiment: Viability of recovered sclerotia; assay type: cell-based, Sclerotinia sclerotiorum
Procedure: The sclerotia were placed in 100 ml of deionized water for 10 minutes and subsequently. washed with running deionized water for 10 minutes. They were then transferred onto moistened filter paper in sealed Petri dishes and placed under light conditions suitable for induction of apothecial formation. […] These sclerotia were surface disinfected in 70% ethanol for 2 minutes, rinsed in sterile deionized water, bisected, transferred to PDA in Petri dishes, and observed for mycelial growth after 5 days.
All the preparations were prepared in such a way that their relative concentrations corresponded to those of the bacterial culture, i.e. 1.5×10^9 cfu ml^−1 (non-diluted), 0.75×10^9 cfu ml^−1 (diluted 1:1) and 0.375×10^9 cfu ml^−1 (diluted 1:3), and their apothecial suppressive activity was compared to the effect of such bacterial cultures tested simultaneously. Three Petri plates per treatment were used with sclerotia treated with deionized water, 50, 25 and 12, 5% strength TSB and 1, 0.5 and 0.25% methanol (MeOH) in deionized water, as controls. Inclusion of methanol controls reflected residual concentrations of methanol in the ethyl acetate extratct and aqueous phase. The suppression of apothecial formation after the treatment with various culture preparations was transformed to values of apothecia formed per one sclerotium as a percentage of water control. Sclerotia with suppressed apothecial formation were retrieved and their viability was tested as described above (Example 8).

[4] = system: three classes of fungi other than Oomycetes; conditions: Strobel et al. (1999); inhibition of mycelial growth; cited from earlier work
[5] = system: S. sclerotiorum sclerotia; experiment: Suppression of apothecial formation - microtiter plate assay 2; assay type: cell-based, Sclerotinia sclerotiorum; conditions: S. sclerotiorum; qualitative
Procedure: Twenty four-well microtiter plates were used to test the effect of the purified metabolites on apothecial formation in a concentration range between 0.01 μg ml^−1 and 100 μg ml^−1. To obtain respective concentrations of tested metabolites, the appropriate volume out of the respective metabolite stock solutions of 100 μg ml^−1, 10 μg ml^−1 and 1 μg ml^−1, dissolved in acetonitrile, was distributed into the wells and the solvent was then evaporated. Thereupon, the metabolites were dissolved in sterile H2O and one, or in some tests two, preconditioned sclerotia were placed into each well. Tests were done in triplicate and controls were sclerotia placed in sterile water only.
as §3

## CC(=O)O[C@H]1CC(=O)OC2CC(CC/C(Cl)=C/C/C=C\1C)O[C@H]2[C@H](O)/C=C(\C)CC(=O)O (stereo partly shown) [Haterumalide A]
[1]; S. sclerotiorum, qualitative
  inhibition of ascospore germination: ability to inhibit
[1]; Sclerotinia sclerotiorum, read-out: Minimal Inhibitory Concentration (MIC) to totally inhibit spore germination
  MIC: 0.8 µg/mL (≈ 1.7 µM)
P. ultimum sporangia
  MIC: 0.4 µg/mL (≈ 0.849 µM)
H. annosum basidiospores
  MIC: 35 µg/mL (≈ 74.3 µM)
F. culmorum conidia
  MIC: 2 µg/mL (≈ 4.25 µM)
F. oxysporum conidia
  MIC: 0.8 µg/mL (≈ 1.7 µM)
[2]
  MIC: 5 µg/mL (≈ 10.6 µM)
S. sclerotiorum mycelium; 0.05 to 0.1 μg ml^−1 per disc, 4 days
  inhibition of mycelial growth of S. sclerotiorum: did not inhibit
S. sclerotiorum mycelium; S. sclerotiorum, qualitative
  inhibition of mycelial growth: ability to inhibit
M. canis macroconidia
  MIC: 15 µg/mL (≈ 31.9 µM)
[3]; sclerotia treated with 10 μg ml^−1
  mycelial growth of retrieved sclerotia on PDA plates: no mycelial growth
[3]; sclerotia treated with 0.5 and 1 μg ml^−1
  apothecial formation of retrieved sclerotia on moistened filter paper: produced apothecia
[3]; sclerotia treated with 3 and 5 μg ml^−1
  mycelial growth of retrieved sclerotia on PDA plates: produced mycelium
[3]; sclerotia treated with 3 to 10 μg ml^−1
  carpogenic germination of retrieved sclerotia: total inhibition
[4]
  activity against three classes of fungi other than Oomycetes: little or no activity
[5]
  inhibition of apothecial formation of sclerotia: ability to inhibit
